The values that follow come from patent publication US9234200B2, “Oligonucleotide, glucocorticoid sensitivity enhancer, pharmaceutical composition, and expression vector” (National University Corporation Tokyo University of …, priority 2011, dated 2016).

In data set [1] the test system is GRα and GRβ. To be noted: HT-29 cells and MCF-7 cells; in words; cited from earlier work.
For another data set, the system named is Raji cells. Kind of data set: BrdU incorporation assay, glucocorticoid sensitivity of oligonucleotide-transfected Raji cells. To be noted: for BrdU incorporation: absorbance at 450 nm. The class given is cell-based, human. On the procedure:
In order to examine the change of glucocorticoid sensitivity of cells caused by introduction of oligonucleotide 1, cell proliferation was quantified by a 5-bromo-2′-deoxyuridine (BrdU) incorporation assay. Dexamethasone (manufactured by Biomol) was used as a glucocorticoid. The concentration of dexamethasone was set to varied concentrations of 0 μM (no addition), 0.1 μM, 0.5 μM, 1 μM, 5 μM, and 10 μM.
Raji cells were cultured in serum-free RPMI1640 medium for 12 hours to synchronize the cell cycle, and then re-suspended in RPMI1640 medium supplemented with serum and inoculated onto a 96-well plate.
After dexamethasone was added, the cells were cultured for 22 hours. Then, BrdU was added thereto, and the cells were cultured for another 2 hours. After centrifugation, the supernatant was discarded, and the cells were dried and fixed. The fixed cells were allowed to react with a peroxidase-labeled anti-BrdU antibody for 1 hour at room temperature. Subsequently, the cells were washed three times with PBS, and tetramethylbenzidine was added thereto. When noticeable coloring was observed, the reaction was stopped by adding H2SO4 (1M). After vigorous agitation, absorbance at 450 nm was measured using a plate reader.
Using the Raji cells to which dexamethasone was not added as a control, cell proliferation inhibitory rate (%) was calculated based on the relative ratio of the obtained absorbance. Here, statistical significance was assessed with one-way analysis of variance and multiple comparison. Tukey's multiple comparison was used for the multiple comparison. A significance level of P<0.05 (vs. no addition of oligonucleotide) was regarded as a significant difference.
BrdU incorporation assay was performed in the same manner as in the above, and alternation of the glucocorticoid sensitivity of the cells caused by the introduction of any one of oligonucleotides 2 to 5 was examined. Each experiment was carried out in quadruplicate. The values shown in Table 7 are average values thereof.
A general note: Dividing cells build labelled thymidine or BrdU into new DNA.

For the next data set, the system named is ERα and ERβ. Kind of data set: Estrogen receptor expression level in Raji cells transfected with oligonucleotide 1 (RT-PCR and PCR). Format: cell-based, human. How it is done:
Estrogen receptor (ER) has two splice variants: ERα and ERβ. It is known that SRp30c is involved in regulating the splicing of ER mRNA.
The expressions levels of ERα and ERβ in Raji cells transfected with oligonucleotide 1 were determined by RT-PCR and PCR.
Raji cells transfected with oligonucleotide 1 were obtained in the same manner as in “Cell Culture” and “Introduction of Oligonucleotide into Cells” in Example 1. The oligonucleotide 1 concentration at the time of introduction into cells was 300 nM.
After the Raji cells were washed with PBS, RNA was extracted using a FASTPURE RNA Kit (manufactured by Takara Bio Inc.), and reverse transcription was performed using a PRIMESCRIPT 1st strand cDNA synthesis kit (manufactured by Takara Bio). The obtained cDNA was amplified using PLATINUM Taq DNA polymerase (manufactured by Invitrogen) and PCR primers (having the sequences shown in Table 8) specific for the gene of interest. The PCR conditions included: performing an initial denaturation at 94° C. for 2 minutes; performing 35 cycles of denaturation (94° C. for 30 seconds), annealing (55° C. for 30 seconds), and extension (72° C. for 1 minute); and performing a final extension at 72° C. for 4 minutes.
The expression level of GAPDH as an endogenous control was determined using PCR primers of SEQ ID Nos: 10 and 11.
After the PCR was performed, DNA was separated by […] electrophoresis on a 2% agarose gel containing ethidium bromide, and the intensity of bands was quantified using an image analyzer GEL PRINT 2000i/VGA (manufactured by Genomic Solutions Inc.).

The subject of data set [2] is GRα and GRβ. Kind of data set: GRα and GRβ expression levels in Raji cells transfected with oligonucleotide (RT-PCR and PCR).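 On GAPDH: mean of three independent experiments.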 Format: cell-based, human. To be noted: for GAPDH / GRα / GRβ: expression level (band intensity), oligonucleotide 300 nM by electroporation, 24 h; for GAPDH: endogenous control; for GRα/GAPDH / GRβ/GAPDH / Relative value of GRα/GRβ: oligonucleotide 300 nM; for Relative value of GRα/GRβ: cells not transfected = 1. On the procedure:
Raji cells (manufactured by Japan Health Science Foundation) derived from human Burkitt's lymphoma were used in experiments.
Raji cells were cultured and maintained in RPMI1640 medium (manufactured by Gibco) at 37° C. in an atmosphere of 5% CO2, the RPMI1640 medium being supplemented with 10% fetal bovine serum (FBS) (manufactured by Filtoron), 100 U/ml penicillin, and 100 μg/ml streptomycin.
2×10^6 Raji cells were washed with phosphate-buffered saline (PBS) and suspended in 100 μl transfection reagent of an Amaxa cell line Nucleofector Kit V (manufactured by Lonza).
After the Raji cells were cultured in the above-described medium for 24 hours, the Raji cells were used for subsequent experiments.
The expression level of glyceraldehyde-3-phosphate dehydrogenase (GAPDH) was determined as an endogenous control.
After the Raji cells were washed with PBS, RNA was extracted using a FastPure RNA Kit (manufactured by Takara Bio Inc.), and reverse transcription was performed using a PrimeScript 1st strand cDNA synthesis kit (manufactured by Takara Bio Inc.). The obtained cDNA was amplified using Platinum Taq DNA polymerase (manufactured by Invitrogen) and PCR primers (having the base sequences shown in Table 2) specific for the gene of interest. The PCR conditions included: performing initial denaturation at 94° C. for 2 minutes; performing 35 cycles of denaturation (94° C. for 30 seconds), annealing (55° C. for 30 seconds), and extension (72° C. for 1 minute); and then performing final extension at 72° C. for 4 minutes.
After the PCR was performed, DNA was separated by […] electrophoresis on a 2% agarose gel containing ethidium bromide, and the intensity of bands was quantified using an image analyzer GEL PRINT 2000i/VGA (manufactured by Genomic Solutions).

Setting [3] is: expression level (band intensity), oligonucleotide 1 300 nM.
The mark [4] stands for this setting: dexamethasone 0.1 μM, quadruplicate (Table 7), label dexamethasone = no oligonucleotide transfected.
Setting [5] is: dexamethasone 0.5 μM, quadruplicate (Table 7), label dexamethasone = no oligonucleotide transfected.
The mark [6] stands for this setting: dexamethasone 1 μM, quadruplicate (Table 7), label dexamethasone = no oligonucleotide transfected.
Setting [7] is: dexamethasone 5 μM, quadruplicate (Table 7), label dexamethasone = no oligonucleotide transfected.

Turning to `CCCC(=O)[O-].[Na+]` [sodium butyrate], the “GRα and GRβ expression levels” value in the data set on GRα and GRβ [1] was “increase GRα expression levels while decreasing GRβ expression levels”.
“Oligonucleotide 1: an oligonucleotide having a base sequence represented by SEQ ID NO: 1 (5′-CTTTCTGGTTTTAACCACATAACATTCTATA-3′) (listed as DNA, chemistry not given here)”: the BrdU incorporation in the data set with Raji cells (dexamethasone 0 μM, triplicate) is on record as 0.556; in the data set on Raji cells (dexamethasone 0.1 μM, triplicate, label dexamethasone = no oligonucleotide introduced), 0.372; in the data set on Raji cells (dexamethasone 0.5 μM, triplicate, label dexamethasone = no oligonucleotide introduced) it was 0.286; in the data set with Raji cells (dexamethasone 1 μM, triplicate, label dexamethasone = no oligonucleotide introduced) it was 0.292; in the data set with Raji cells (dexamethasone 5 μM, triplicate, label dexamethasone = no oligonucleotide introduced), 0.271; in the data set with Raji cells (dexamethasone 10 μM, triplicate, label dexamethasone = no oligonucleotide introduced), 0.279. Further, the “cell proliferation inhibitory rate” value in the data set with Raji cells (dexamethasone 0.1 μM vs no dexamethasone, triplicate, label dexamethasone = no oligonucleotide introduced) is reported as 32.874%; in the data set on Raji cells (dexamethasone 0.5 μM vs no dexamethasone, triplicate, label dexamethasone = no oligonucleotide introduced), 48.364%; in the data set with Raji cells (dexamethasone 1 μM vs no dexamethasone, triplicate, label dexamethasone = no oligonucleotide introduced), 47.553%; in the data set with Raji cells (dexamethasone 5 μM vs no dexamethasone, triplicate, label dexamethasone = no oligonucleotide introduced), 50.624%; in the data set with Raji cells (dexamethasone 10 μM vs no dexamethasone, triplicate, label dexamethasone = no oligonucleotide introduced) it was 49.526%. Besides, the “BrdU incorporation on addition of dexamethasone, compared to Raji cells not transfected” value in the data set with Raji cells (in words) is listed as “significant reduction in BrdU incorporation”. Besides, in the data set on Raji cells (in words), the “cell proliferation inhibitory rate on addition of dexamethasone, compared to Raji cells not transfected” value was “significant increase in cell proliferation inhibitory rate”. The “glucocorticoid sensitivity of cells” value in the data set on Raji cells (in words) is “increased the glucocorticoid sensitivity of cells”. In addition, the GAPDH with ERα and ERβ (expression level (band intensity), endogenous control, oligonucleotide 1 300 nM) is 2476.113; in the data set with GRα and GRβ [2] it was 3033.167. Besides, the ERα in the data set with ERα and ERβ (setting [3]) is given as 2201.941. Also, in the data set with ERα and ERβ (setting [3]), the ERβ came out at 1299.820. The “regulation of the splicing of ER mRNA” value with ERα and ERβ (in words) is “does not affect the regulation of the splicing of ER mRNA”. In the data set with ERα and ERβ (oligonucleotide 1 300 nM), this molecule had an ERα/ERβ of 1.694. Further, in the data set on ERα and ERβ (oligonucleotide 1 300 nM), the ERα/GAPDH amounted to 0.889. Also, the ERβ/GAPDH in the data set on ERα and ERβ (oligonucleotide 1 300 nM) stood at 0.525. The “Relative value of ERα/ERβ” value in the data set with ERα and ERβ (oligonucleotide 1 300 nM, cells not transfected = 1) is reported as “approximately 1”; in the data set with ERα and ERβ (oligonucleotide 1 300 nM, cells not transfected = 1, listed as 1), 1.001. The GRα in the data set on GRα and GRβ [2] was determined as 3278.767. In addition, in the data set with GRα and GRβ [2], the GRβ is listed as 4611.084. Moreover, the GRα/GAPDH in the data set on GRα and GRβ [2] amounted to 1.082. The GRβ/GAPDH with GRα and GRβ [2] was 1.519. Also, the “Relative value of GRα/GRβ” value in the data set with GRα and GRβ [2] is on record as 1.213. Moreover, the “expression level of GRβ, concentration dependency” value in the data set on GRα and GRβ [2] (various concentrations of oligonucleotide 1) is “decreased the expression level of GRβ in a concentration-dependent manner”.
For the molecule `CC(/C=C/C(=O)NO)=C\[C@@H](C)C(=O)c1ccc(N(C)C)cc1` [trichostatin A], the “GRα and GRβ expression levels” value in the data set on GRα and GRβ [1] is given as “increase GRα expression levels while decreasing GRβ expression levels”.
Regarding “Oligonucleotide 3: an oligonucleotide having a base sequence represented by SEQ ID NO: 3 (5′-TAAGATGACTTTCTTTTCCCCCACGTATCCT-3′) (listed as DNA, chemistry not given here)”, the “cell proliferation inhibitory rate” value with Raji cells (setting [4]) was determined as 16.924%. Moreover, the “cell proliferation inhibitory rate” value in the data set with Raji cells (setting [5]) is recorded as 34.134%. Also, in the data set on Raji cells (setting [6]), the “cell proliferation inhibitory rate” value amounted to 37.164%. Also, the “cell proliferation inhibitory rate” value in the data set on Raji cells (setting [7]) is 48.256%. In the data set on GRα and GRβ [2], this molecule returned a GAPDH of 3128.467, a GRα of 3177.814, a GRβ of 4596.457 and a GRα/GAPDH of 1.015. For the same molecule, in the data set on GRα and GRβ [2], the GRβ/GAPDH came out at 1.471 and the “Relative value of GRα/GRβ” value is listed as 1.182.
“Oligonucleotide 2: an oligonucleotide having a base sequence represented by SEQ ID NO: 2 (5′-AAAAGGGCACAGCTTCTTTTCCCATTTAATGAAA-3′) (listed as DNA, chemistry not given here)”: in the data set on Raji cells (setting [4]), the “cell proliferation inhibitory rate” value was determined as 10.541%. In addition, the “cell proliferation inhibitory rate” value in the data set with Raji cells (setting [5]) was determined as 19.044%. Further, the “cell proliferation inhibitory rate” value in the data set on Raji cells (setting [6]) came out at 22.769%. In the data set on Raji cells (setting [7]), the “cell proliferation inhibitory rate” value worked out at 36.402%. In the data set with GRα and GRβ [2], the GAPDH turned out to be 3169.938, the GRα is reported as 3340.440, the GRβ came out at 4641.922 and the GRα/GAPDH worked out at 1.054. Moreover, in the data set on GRα and GRβ [2], the GRβ/GAPDH is recorded as 1.467 and the “Relative value of GRα/GRβ” value is 1.226.
On to `Nc1ncn([C@H]2C[C@H](O)[C@@H](CO)O2)c(=O)n1` [5-aza-2′-deoxycytidine], for which the “GRα and GRβ expression levels” value in the data set with GRα and GRβ [1] is “increase GRα expression levels while decreasing GRβ expression levels”.
Turning to “Oligonucleotide 5: an oligonucleotide having a base sequence represented by SEQ ID NO: 5 (5′-CAGATTTTTTTATTATGATGT-3′) (listed as DNA, chemistry not given here)”, the “cell proliferation inhibitory rate” value in the data set on Raji cells (setting [4]) is on record as 29.842%. Besides, the “cell proliferation inhibitory rate” value in the data set on Raji cells (setting [5]) is listed as 26.632%. Besides, the “cell proliferation inhibitory rate” value with Raji cells (setting [6]) is 32.895%. Moreover, in the data set with Raji cells (setting [7]), the “cell proliferation inhibitory rate” value amounted to 36.053%. In the data set with GRα and GRβ [2], this molecule displayed a GAPDH of 3087.403, a GRα of 3210.228, a GRβ of 4516.989 and a GRα/GAPDH of 1.041. In addition, in the data set with GRα and GRβ [2], the GRβ/GAPDH came out at 1.461 and the “Relative value of GRα/GRβ” value is on record as 1.210.
